Measured values published in PubChem BioAssay (NCI).
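48-hour exposure; five concentrations; linearly interpolated endpoints. TGI marks complete inhibition of growth.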

Key:
Assay in all cases: inhibition of tumour cell growth, NCI panel, 48 h
OVCAR-8 ovarian = system: OVCAR-8 ovarian
COLO 205 colon = system: COLO 205 colon
MOLT-4 leukemia = system: MOLT-4 leukemia
786-0 renal = system: 786-0 renal
ACHN renal = system: ACHN renal
RPMI-8226 leukemia = system: RPMI-8226 leukemia
SW-620 colon = system: SW-620 colon
LOX IMVI melanoma = system: LOX IMVI melanoma
UACC-62 melanoma = system: UACC-62 melanoma
NCI/ADR-RES ovarian = system: NCI/ADR-RES ovarian
BT-549 breast = system: BT-549 breast
MDA-MB-231 breast = system: MDA-MB-231 breast
SK-OV-3 ovarian = system: SK-OV-3 ovarian
MCF7 breast = system: MCF7 breast
SN12C renal = system: SN12C renal
HCT-15 colon = system: HCT-15 colon
NCI-H522 lung = system: NCI-H522 lung
SK-MEL-28 melanoma = system: SK-MEL-28 melanoma
NCI-H226 lung = system: NCI-H226 lung
SK-MEL-5 melanoma = system: SK-MEL-5 melanoma
SR leukemia = system: SR leukemia
HCT-116 colon = system: HCT-116 colon
OVCAR-3 ovarian = system: OVCAR-3 ovarian
OVCAR-5 ovarian = system: OVCAR-5 ovarian
MDA-MB-435 = system: MDA-MB-435
SF-268 CNS = system: SF-268 CNS
DU-145 prostate = system: DU-145 prostate
SK-MEL-2 melanoma = system: SK-MEL-2 melanoma
KM12 colon = system: KM12 colon
EKVX NSCLC = system: EKVX NSCLC
CCRF-CEM leukemia = system: CCRF-CEM leukemia
MALME-3M melanoma = system: MALME-3M melanoma
TK-10 renal = system: TK-10 renal
MDA-N = system: MDA-N
HOP-62 NSCLC = system: HOP-62 NSCLC
UO-31 renal = system: UO-31 renal
NCI-H460 lung = system: NCI-H460 lung
U251 CNS = system: U251 CNS
PC-3 prostate = system: PC-3 prostate
HS 578T breast = system: HS 578T breast
CAKI-1 renal = system: CAKI-1 renal
UACC-257 melanoma = system: UACC-257 melanoma
SF-295 CNS = system: SF-295 CNS
A498 renal = system: A498 renal
HT29 colon = system: HT29 colon
K-562 leukemia = system: K-562 leukemia
HL-60(TB) leukemia = system: HL-60(TB) leukemia
M14 melanoma = system: M14 melanoma
NCI-H23 lung = system: NCI-H23 lung
SNB-75 CNS = system: SNB-75 CNS
IGROV1 ovarian = system: IGROV1 ovarian
T-47D breast = system: T-47D breast
SNB-19 CNS = system: SNB-19 CNS
HCC-2998 colon = system: HCC-2998 colon
A549 NSCLC = system: A549 NSCLC
SF-539 CNS = system: SF-539 CNS
RXF 393 renal = system: RXF 393 renal
OVCAR-4 ovarian = system: OVCAR-4 ovarian

NCCCNCCCCN1CCOC1=O
TGI (OVCAR-8 ovarian): > 100 µM | TGI (COLO 205 colon): > 100 µM | TGI (MOLT-4 leukemia): > 100 µM | TGI (786-0 renal): > 100 µM | TGI (ACHN renal): > 100 µM | TGI (RPMI-8226 leukemia): > 100 µM | TGI (SW-620 colon): > 100 µM | TGI (LOX IMVI melanoma): > 100 µM | TGI (UACC-62 melanoma): > 100 µM | TGI (NCI/ADR-RES ovarian): > 100 µM | TGI (BT-549 breast): > 100 µM | TGI (MDA-MB-231 breast): > 100 µM | TGI (SK-OV-3 ovarian): > 100 µM | TGI (MCF7 breast): > 100 µM | TGI (SN12C renal): > 100 µM | TGI (HCT-15 colon): > 100 µM | TGI (NCI-H522 lung): > 100 µM | TGI (SK-MEL-28 melanoma): > 100 µM | TGI (NCI-H226 lung): > 100 µM | TGI (SK-MEL-5 melanoma): > 100 µM | TGI (SR leukemia): > 100 µM | TGI (HCT-116 colon): > 100 µM | TGI (OVCAR-3 ovarian): > 100 µM | TGI (OVCAR-5 ovarian): > 100 µM | TGI (MDA-MB-435): > 100 µM | TGI (SF-268 CNS): > 100 µM | TGI (DU-145 prostate): > 100 µM | TGI (SK-MEL-2 melanoma): > 100 µM | TGI (KM12 colon): > 100 µM | TGI (EKVX NSCLC): > 100 µM | TGI (CCRF-CEM leukemia): > 100 µM | TGI (MALME-3M melanoma): > 100 µM | TGI (TK-10 renal): > 100 µM | TGI (MDA-N): > 100 µM | TGI (HOP-62 NSCLC): > 100 µM | TGI (UO-31 renal): > 100 µM | TGI (NCI-H460 lung): > 100 µM | TGI (U251 CNS): > 100 µM | TGI (PC-3 prostate): > 100 µM | TGI (HS 578T breast): > 100 µM | TGI (CAKI-1 renal): > 100 µM | TGI (UACC-257 melanoma): > 100 µM | TGI (SF-295 CNS): > 100 µM | TGI (A498 renal): > 100 µM | TGI (HT29 colon): > 100 µM | TGI (K-562 leukemia): > 100 µM | TGI (HL-60(TB) leukemia): > 100 µM | TGI (M14 melanoma): > 100 µM | TGI (NCI-H23 lung): > 100 µM | TGI (SNB-75 CNS): > 100 µM | TGI (IGROV1 ovarian): > 100 µM | TGI (T-47D breast): > 100 µM | TGI (SNB-19 CNS): > 100 µM | TGI (HCC-2998 colon): > 100 µM | TGI (A549 NSCLC): > 100 µM | TGI (SF-539 CNS): > 100 µM

CC1CC(Nc2ccc(Br)cc2)N(C(=O)c2ccc(Br)cc2)O1 (centres undefined)
TGI (OVCAR-8 ovarian): > 10 µM | TGI (COLO 205 colon): > 10 µM | TGI (MOLT-4 leukemia): > 10 µM | TGI (786-0 renal): > 10 µM | TGI (ACHN renal): > 10 µM | TGI (RPMI-8226 leukemia): > 10 µM | TGI (SW-620 colon): > 10 µM | TGI (NCI/ADR-RES ovarian): > 10 µM | TGI (BT-549 breast): > 10 µM | TGI (MDA-MB-231 breast): > 10 µM | TGI (SK-OV-3 ovarian): > 10 µM | TGI (MCF7 breast): > 10 µM | TGI (SN12C renal): > 10 µM | TGI (HCT-15 colon): > 10 µM | TGI (RXF 393 renal): > 10 µM | TGI (NCI-H522 lung): > 10 µM | TGI (SK-MEL-28 melanoma): > 10 µM | TGI (NCI-H226 lung): > 10 µM | TGI (SK-MEL-5 melanoma): > 10 µM | TGI (SR leukemia): > 10 µM | TGI (HCT-116 colon): > 10 µM | TGI (OVCAR-3 ovarian): > 10 µM | TGI (OVCAR-5 ovarian): > 10 µM | TGI (MDA-MB-435): > 10 µM | TGI (SF-268 CNS): > 10 µM | TGI (DU-145 prostate): > 10 µM | TGI (SK-MEL-2 melanoma): > 10 µM | TGI (EKVX NSCLC): > 10 µM | TGI (OVCAR-4 ovarian): > 10 µM | TGI (CCRF-CEM leukemia): > 10 µM | TGI (MALME-3M melanoma): > 10 µM | TGI (TK-10 renal): > 10 µM | TGI (MDA-N): > 10 µM | TGI (HOP-62 NSCLC): > 10 µM | TGI (UO-31 renal): > 10 µM | TGI (NCI-H460 lung): > 10 µM | TGI (PC-3 prostate): > 10 µM | TGI (HS 578T breast): > 10 µM | TGI (CAKI-1 renal): > 10 µM | TGI (UACC-257 melanoma): > 10 µM | TGI (SF-295 CNS): > 10 µM | TGI (HT29 colon): > 10 µM | TGI (K-562 leukemia): > 10 µM | TGI (HL-60(TB) leukemia): > 10 µM | TGI (M14 melanoma): > 10 µM | TGI (NCI-H23 lung): > 10 µM | TGI (SNB-75 CNS): > 10 µM | TGI (IGROV1 ovarian): > 10 µM | TGI (T-47D breast): > 10 µM | TGI (SNB-19 CNS): > 10 µM | TGI (HCC-2998 colon): > 10 µM | TGI (A549 NSCLC): > 10 µM | TGI (SF-539 CNS): > 10 µM
